Experiments:
[1] = Inhibition of CDK1/Cyclin B by Flashplate assay; design: species or system Homo sapiens
[2] = molecular target: Vascular endothelial growth factor receptor 2 (Homo sapiens, UniProt P35968); experiment: Inhibition of VEGFR2
Vascular endothelial growth factor receptor 2, sequence (P35968 whole entry): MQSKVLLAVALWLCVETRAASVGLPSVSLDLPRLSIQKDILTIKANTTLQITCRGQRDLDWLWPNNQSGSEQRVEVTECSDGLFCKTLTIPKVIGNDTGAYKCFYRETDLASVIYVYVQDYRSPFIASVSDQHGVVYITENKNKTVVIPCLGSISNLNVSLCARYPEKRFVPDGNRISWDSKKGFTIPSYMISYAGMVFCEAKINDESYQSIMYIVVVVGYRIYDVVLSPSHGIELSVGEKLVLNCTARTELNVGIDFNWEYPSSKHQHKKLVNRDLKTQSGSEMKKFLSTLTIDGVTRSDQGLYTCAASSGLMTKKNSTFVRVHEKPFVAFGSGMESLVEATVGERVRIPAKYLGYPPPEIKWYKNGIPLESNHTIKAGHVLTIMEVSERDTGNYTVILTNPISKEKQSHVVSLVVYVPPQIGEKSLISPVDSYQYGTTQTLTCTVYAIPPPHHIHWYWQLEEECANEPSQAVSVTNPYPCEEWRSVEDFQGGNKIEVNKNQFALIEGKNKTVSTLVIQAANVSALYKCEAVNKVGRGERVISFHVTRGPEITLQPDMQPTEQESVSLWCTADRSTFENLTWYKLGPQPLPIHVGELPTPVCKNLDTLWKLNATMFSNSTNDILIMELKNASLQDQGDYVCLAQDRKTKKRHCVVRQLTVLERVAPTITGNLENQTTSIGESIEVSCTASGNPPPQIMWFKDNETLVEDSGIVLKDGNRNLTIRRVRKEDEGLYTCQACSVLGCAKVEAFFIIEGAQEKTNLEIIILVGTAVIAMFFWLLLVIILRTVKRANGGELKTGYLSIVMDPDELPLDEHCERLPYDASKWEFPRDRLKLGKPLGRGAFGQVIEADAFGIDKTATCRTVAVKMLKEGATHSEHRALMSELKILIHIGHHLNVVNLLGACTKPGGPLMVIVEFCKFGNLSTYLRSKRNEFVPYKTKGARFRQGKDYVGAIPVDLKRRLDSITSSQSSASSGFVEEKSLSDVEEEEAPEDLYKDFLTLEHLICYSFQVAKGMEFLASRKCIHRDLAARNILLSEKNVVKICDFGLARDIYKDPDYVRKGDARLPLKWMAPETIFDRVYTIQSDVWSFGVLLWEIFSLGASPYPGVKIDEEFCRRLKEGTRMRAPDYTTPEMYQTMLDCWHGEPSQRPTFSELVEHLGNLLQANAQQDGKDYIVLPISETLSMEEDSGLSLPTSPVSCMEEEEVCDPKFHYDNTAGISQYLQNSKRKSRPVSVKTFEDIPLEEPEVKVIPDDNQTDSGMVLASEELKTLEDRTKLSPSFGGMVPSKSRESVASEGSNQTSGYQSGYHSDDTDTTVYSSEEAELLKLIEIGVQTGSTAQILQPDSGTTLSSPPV

IC50 [1]: 23 nM
IC50 [2]: 1460 nM
Structure (SMILES): c1ccc2c(-c3cnc4[nH]nc(-c5nc6ccccc6[nH]5)c4c3)cncc2c1
